Experimental data published in ChEMBL document CHEMBL1123558, “Antitumor activity of bis(diphenylphosphino)alkanes, their gold(I) coordination complexes, and related compounds” (J Med Chem, 1987).
Several values for one entry are separate records, joined by “and”; a condition that tells them apart may be missing. Equal values may be shown once.

Key:
B16 [1] = assay: In vitro cytotoxicity against murine B16 melanoma cells; format: functional, cell-based, Mus musculus
Mus musculus [2] = assay: Maximally tolerated dose was measured after ip administration of compound, 24 hr after tumor implantation.; format: functional
P388 [3] = assay: Maximum increase in life span was determined against P388 leukemia at 4-5 doses of compound; format: functional, Mus musculus
Mus musculus [4] = species: Mus musculus
ADJ/PC6 = assay: Tumor growth inhibition activity after subcutaneous transplanted tumor in ADJ-PC6 plasmacytoma cells; format: functional, Mus musculus
B16 [5] = assay: Percent increase in life span after transplant tumor in B16 melanoma cells; format: functional, Mus musculus
L1210 = assay: Percent increase in life span after transplant tumor in L1210 leukemia; format: functional, Mus musculus
M5076 = assay: Percent increase in life span after transplant tumor in M5076 reticulum cells; format: functional, Mus musculus
[6] = test system: Lewis lung carcinoma cell line; assay: Percent increase in life span after transplant tumor in Lewis lung carcinoma cells; format: functional, Mus musculus
[7] = Percent increase in life span after transplant tumor in Madison lung carcinoma cells; format: functional, Mus musculus, M109
P388 [8] = assay: Percent increase in life span after transplant tumor in p388 leukemia cells; format: functional, Mus musculus
[9] = Tumor growth inhibition activity after subcutaneous transplanted tumor in mammary carcinoma 16/C cells; format: functional, Mus musculus

Molecule: c1ccc(P(CCP(CCP(c2ccccc2)c2ccccc2)CCP(c2ccccc2)c2ccccc2)c2ccccc2)cc1
- IC50 (B16 [1]; Mus musculus, B16): 58 µM
- MTD (Mus musculus [2]): 95 µM/kg
- ILSmax (P388 [3]): 35

Molecule: c1ccc([As](CC[As](c2ccccc2)c2ccccc2)c2ccccc2)cc1
- IC50 (B16 [1]; Mus musculus, B16): > 100 µM
- MTD (Mus musculus [2]): 82 µM/kg

Molecule: c1ccc(P(CCP(c2ccccc2)c2ccccc2)CCP(c2ccccc2)c2ccccc2)cc1
- IC50 (B16 [1]; Mus musculus, B16): > 100 µM
- MTD (Mus musculus [2]): 60 µM/kg
- ILSmax (P388 [3]): 80

Molecule: c1ccc(P(c2ccccc2)P(c2ccccc2)c2ccccc2)cc1
- IC50 (B16 [1]; Mus musculus, B16): > 100 µM
- MTD (Mus musculus [2]): 320 µM/kg

Molecule: FC(F)(F)c1ccc(P(CCP(c2ccc(C(F)(F)F)cc2)c2ccc(C(F)(F)F)cc2)c2ccc(C(F)(F)F)cc2)cc1
- MTD (Mus musculus [2]): 48 µM/kg
- ILSmax (P388 [3]): 38

Molecule: CSc1ccc(P(CCP(c2ccc(SC)cc2)c2ccc(SC)cc2)c2ccc(SC)cc2)cc1
- MTD (Mus musculus [2]): 55 µM/kg
- ILSmax (P388 [3]): 58

Molecule: c1csc(P(CCP(c2cccs2)c2cccs2)c2cccs2)c1
- IC50 (B16 [1]; Mus musculus, B16): > 100 µM
- MTD (Mus musculus [2]): 38 µM/kg
- ILSmax (P388 [3]): 60

Molecule: COc1ccccc1P(CCP(c1ccccc1OC)c1ccccc1OC)c1ccccc1OC
- MTD (Mus musculus [2]): 120 µM/kg

Molecule: CN(C)c1ccc(P(CCP(c2ccc(N(C)C)cc2)c2ccc(N(C)C)cc2)c2ccc(N(C)C)cc2)cc1
- MTD (Mus musculus [2]): >220 µM/kg

Molecule: Fc1ccc(P(CCP(c2ccc(F)cc2)c2ccc(F)cc2)c2ccc(F)cc2)cc1
- IC50 (B16 [1]; Mus musculus, B16): > 100 µM
- MTD (Mus musculus [2]): 17 µM/kg
- ILSmax (P388 [3]): 60

Molecule: c1ccc(P(CCP(c2ccccn2)c2ccccn2)c2ccccn2)nc1
- IC50 (B16 [1]; Mus musculus, B16): > 100 µM
- MTD (Mus musculus [2]): 60 µM/kg

Molecule: C1CCC(P(CCP(C2CCCCC2)C2CCCCC2)C2CCCCC2)CC1
- IC50 (B16 [1]; Mus musculus, B16): > 100 µM
- MTD (Mus musculus [2]): 76 µM/kg
- ILSmax (P388 [3]): 68

Molecule: CCP(CC)CCP(CC)CC
- IC50 (B16 [1]; Mus musculus, B16): > 100 µM
- MTD (Mus musculus [2]): 310 µM/kg

Molecule: CC(CP(c1ccccc1)c1ccccc1)P(c1ccccc1)c1ccccc1 (stereo not given)
- IC50 (B16 [1]; Mus musculus, B16): 50 µM
- MTD (Mus musculus [2]): 78 µM/kg
- ILSmax (P388 [3]): 86

Molecule: c1ccc(SCCSc2ccccc2)cc1
- IC50 (B16 [1]; Mus musculus, B16): > 100 µM
- MTD (Mus musculus [2]): 1000 µM/kg

Molecule: O=[N+]([O-])[O][Ag].O=[N+]([O-])[O][Ag].c1ccc(P(CCP(c2ccccc2)c2ccccc2)c2ccccc2)cc1
- MTD (Mus musculus [2]): 8 µM/kg

Molecule: CC(C(C)P(c1ccccc1)c1ccccc1)P(c1ccccc1)c1ccccc1 (stereo not given)
- IC50 (B16 [1]; Mus musculus, B16): 50 µM
- MTD (Mus musculus [2]): 113 µM/kg
- ILSmax (P388 [3]): 73

Molecule: Cc1cccc(P(CCP(c2cccc(C)c2)c2cccc(C)c2)c2cccc(C)c2)c1
- IC50 (B16 [1]; Mus musculus, B16): > 100 µM
- MTD (Mus musculus [2]): 70 µM/kg

Molecule: Fc1ccccc1P(CCP(c1ccccc1F)c1ccccc1F)c1ccccc1F
- IC50 (B16 [1]; Mus musculus, B16): > 100 µM
- MTD (Mus musculus [2]): 68 µM/kg
- ILSmax (P388 [3]): 45

Molecule: C(=C/P(c1ccccc1)c1ccccc1)/P(c1ccccc1)c1ccccc1
- IC50 (B16 [1]; Mus musculus, B16): 25 µM
- MTD (Mus musculus [2]): 61 µM/kg
- ILSmax (P388 [3]): 60

Molecule: C(#CP(c1ccccc1)c1ccccc1)P(c1ccccc1)c1ccccc1
- IC50 (B16 [1]; Mus musculus, B16): 23 µM
- MTD (Mus musculus [2]): >300 µM/kg

Molecule: c1ccc(P(CCCCCP(c2ccccc2)c2ccccc2)c2ccccc2)cc1
- IC50 (B16 [1]; Mus musculus, B16): > 100 µM
- MTD (Mus musculus [2]): 18 µM/kg
- ILSmax (P388 [3]): 50

Molecule: c1cc(P(CCP(c2ccncc2)c2ccncc2)c2ccncc2)ccn1
- MTD (Mus musculus [2]): 80 µM/kg
- ILSmax (P388 [3]): 35

Molecule: 4,4'-Bis-diphenylphosphanyl-biphenyl; compound with GENERIC INORGANIC NEUTRAL COMPONENT
- MTD (Mus musculus [4]): 35 µM/kg and 24 µM/kg and 30 µM/kg

Molecule: c1ccc(CP(CCP(Cc2ccccc2)Cc2ccccc2)Cc2ccccc2)cc1
- IC50 (B16 [1]; Mus musculus, B16): > 100 µM
- MTD (Mus musculus [2]): 44 µM/kg

Molecule: C(=C\P(c1ccccc1)c1ccccc1)/P(c1ccccc1)c1ccccc1
- IC50 (B16 [1]; Mus musculus, B16): 40 µM
- MTD (Mus musculus [2]): 320 µM/kg

Molecule: c1ccc(P(CCCP(c2ccccc2)c2ccccc2)c2ccccc2)cc1
- IC50 (B16 [1]; Mus musculus, B16): 72 µM
- MTD (Mus musculus [2]): 78 µM/kg
- ILSmax (P388 [3]): 75

Molecule: c1ccc(P(CCCCCCP(c2ccccc2)c2ccccc2)c2ccccc2)cc1
- IC50 (B16 [1]; Mus musculus, B16): > 100 µM
- MTD (Mus musculus [2]): 280 µM/kg

Molecule: c1ccc(P(CCCCP(c2ccccc2)c2ccccc2)c2ccccc2)cc1
- IC50 (B16 [1]; Mus musculus, B16): > 100 µM
- MTD (Mus musculus [2]): 66 µM/kg
- ILSmax (P388 [3]): 45

Molecule: c1ccc(P(c2ccccc2)c2ccc(P(c3ccccc3)c3ccccc3)cc2)cc1
- IC50 (B16 [1]; Mus musculus, B16): > 100 µM
- MTD (Mus musculus [2]): >600 µM/kg

Molecule: c1ccc(P(CC[As](c2ccccc2)c2ccccc2)c2ccccc2)cc1
- IC50 (B16 [1]; Mus musculus, B16): 55 µM
- MTD (Mus musculus [2]): 89 µM/kg

Molecule: COc1ccc(P(CCP(c2ccc(OC)cc2)c2ccc(OC)cc2)c2ccc(OC)cc2)cc1
- IC50 (B16 [1]; Mus musculus, B16): 66 µM
- MTD (Mus musculus [2]): 62 µM/kg

Molecule: c1ccc(P(CCP(c2ccccc2)c2ccccc2)c2ccccc2)cc1
- TGI (ADJ/PC6): 94%
- ILS (B16 [5]): 38%
- IC50 (B16 [1]; Mus musculus, B16): 50 µM
- IC50 (B16 [1]; b16): 60 µM
- ILS (L1210): 56%
- ILS (M5076): 74%
- ILS [6]: 69%
- ILS [7]: 50%
- MTD (Mus musculus [2]): 60 µM/kg and 50 µM/kg
- ILS (P388 [8]): 107%
- ILSmax (P388 [3]): 80 and 107
- TGI [9]: 88%

Molecule: CCP(CCP(CC)c1ccccc1)c1ccccc1 (stereo not given)
- IC50 (B16 [1]; Mus musculus, B16): > 100 µM
- MTD (Mus musculus [2]): >300 µM/kg

Molecule: O=P(CCP(=O)(c1ccccc1)c1ccccc1)(c1ccccc1)c1ccccc1
- IC50 (B16 [1]; Mus musculus, B16): > 100 µM
- MTD (Mus musculus [2]): 300 µM/kg

Molecule: CSc1ccccc1P(CCP(c1ccccc1SC)c1ccccc1SC)c1ccccc1SC
- MTD (Mus musculus [2]): 110 µM/kg
- ILSmax (P388 [3]): 51

Molecule: Cc1ccc(P(CCP(c2ccc(C)cc2)c2ccc(C)cc2)c2ccc(C)cc2)cc1
- IC50 (B16 [1]; Mus musculus, B16): > 100 µM
- MTD (Mus musculus [2]): 26 µM/kg

Molecule: c1coc(P(CCP(c2ccco2)c2ccco2)c2ccco2)c1
- IC50 (B16 [1]; Mus musculus, B16): > 100 µM
- MTD (Mus musculus [2]): 180 µM/kg
- ILSmax (P388 [3]): 60
